Measurements from US10206894B2, “Compounds for use in treatment of mucositis” (priority 2011, dated 2019).

Key:
[1] = tested on: radiation-induced oral mucositis, left buccal cheek pouch; settings: Acute Radiation; published results in nearly identical models; cited from earlier work
[2] = tested on: fractionated radiation and cisplatin induced oral mucositis, left buccal cheek pouch; settings: published results in nearly identical models; cited from earlier work
[3] = tested on: FaDu human head and neck cancer xenograft; test: Tumor growth and response to therapy in FaDu xenograft; assay type: in vivo, nude mice (nu/nu)
Protocol: Ninety (90) male nude mice (nu/nu) were divided into nine (9) groups of ten […]) mice per group. To ensure that a sufficient number of tumor-bearing animals were available for this study, a total of 100 mice were inoculated s.c. in the flank with 1×10^6 FaDu cells. FaDu (HTB-43) human head and neck cancer cells were obtained from ATCC. These cells were grown in EMEM medium supplemented with 10% Fetal Calf Serum (FCS), 1% penicillin and streptomycin, and 2 mM L-Glutamine. […] The flask was incubated at 37° C. until cells detached. Cells were then sub-cultured at a ratio of 1:3. […] Tumors were measured once every two days with micro-calipers, and tumor volume was calculated as (length×width×width)/2. Where animals were euthanized for tumor volume exceeding the maximum permissible by IACUC rules (1500 mm^3) or tumor ulceration, the last measurement was carried forward in calculations of mean tumor volume.
All animals were weighed every day and their survival recorded, to assess possible differences in animal weight among treatment groups as an indication of possible toxicity resulting from the treatments. […] Any animals whose tumor grew to over 1500 mm^3 were also euthanized.
Further analysis of the tumor volume data was performed by calculating the mean area under the curve (AUC) for the tumor volume for each animal and comparing the groups using an ANOVA on ranks test. Due to the impact of animals euthanized for tumor ulceration or volume in excess of 1500 mm^3, this analysis was performed on data to Day 15 as well as on the full data set to Day 29.

[4] = groups receiving cisplatin chemotherapy 5 mg/kg (with vehicle or Compound X)

SMILES	% reduction of animal days with OM scores ≥ 3 [1]	% reduction of animal days with OM scores ≥ 3 [2] [%]	mean weight gain ([3]; cisplatin 5 mg/kg plus vehicle, by Day 15) [%]	average gain of starting weight ([3]; cisplatin 5 mg/kg plus vehicle, by the end of the study) [%]	p, tumor volume AUC to Day 15 vs vehicle control group (ANOVA on ranks) ([3]; cisplatin plus vehicle)	mean tumor volume ([3]; cisplatin plus vehicle, Day 1) [mm^3]	mean tumor volume ([3]; cisplatin plus vehicle, Day 15) [mm^3]	mean tumor volume ([3]; cisplatin plus vehicle, end of the study) [mm^3]	animals euthanized for tumor size [3, 4] [%]	animals euthanized for tumor ulceration [3, 4] [%]	animals survived [3, 4] [%]
N[C@H](CCC(=O)N[C@@H](Cc1c[nH]c2ccccc12)C(=O)O)C(=O)O [SCV-07]	68.3%-77.6%	33.3									
N.N.[Cl][Pt][Cl] [cisplatin, reference compound]			7.2	13.0	0.011	100	652	302	23	26.7	50
